From ChEMBL document CHEMBL1152842, “Synthesis, Raman, FT-IR, NMR spectroscopic data and antimicrobial activity of mixed aza-oxo-thia macrocyclic compounds” (2009)

Experiments:
Assay type in all cases: functional
Bacillus cereus [1] = test: Antibacterial activity against Bacillus cereus ATCC 7064 at 10 units after 24 hrs by disk diffusion method
Micrococcus luteus [2] = test: Antibacterial activity against Micrococcus luteus La 2971 at 10 units after 24 hrs by disk diffusion method
Klebsiella pneumoniae [3] = test: Antibacterial activity against Klebsiella pneumoniae UC57 at 10 units after 24 hrs by disk diffusion method
Proteus vulgaris [4] = test: Antibacterial activity against Proteus vulgaris ATCC 8427 at 10 units after 24 hrs by disk diffusion method
Escherichia coli [5] = test: Antibacterial activity against Escherichia coli ATCC 11230 at 10 units after 24 hrs by disk diffusion method
[6] = tested on: Mycolicibacterium smegmatis; test: Antibacterial activity against Mycobacterium smegmatis CCM 2067 at 10 units after 24 hrs by disk diffusion method
Listeria monocytogenes [7] = test: Antibacterial activity against Listeria monocytogenes ATCC 15313 at 10 units after 24 hrs by disk diffusion method
Pseudomonas aeruginosa [8] = test: Antibacterial activity against Pseudomonas aeruginosa ATCC 27853 at 10 units after 24 hrs by disk diffusion method
Staphylococcus aureus [9] = test: Antibacterial activity against Staphylococcus aureus ATCC 6538 at 10 units after 24 hrs by disk diffusion method
Proteus vulgaris [10] = test: Antibacterial activity against Proteus vulgaris ATCC 8427 at 30 ug after 24 hrs by disk diffusion method; conditions: ATCC 8427, 24 h, read-out: IZ
Pseudomonas aeruginosa [11] = test: Antibacterial activity against Pseudomonas aeruginosa ATCC 27853 at 30 ug after 24 hrs by disk diffusion method; conditions: ATCC 27853, 24 h, read-out: IZ
Micrococcus luteus [12] = test: Antibacterial activity against Micrococcus luteus La 2971 at 30 ug after 24 hrs by disk diffusion method; conditions: read-out: IZ
Escherichia coli [13] = test: Antibacterial activity against Escherichia coli ATCC 11230 at 30 ug after 24 hrs by disk diffusion method; conditions: ATCC 11230, 24 h, read-out: IZ
Klebsiella pneumoniae [14] = test: Antibacterial activity against Klebsiella pneumoniae UC57 at 30 ug after 24 hrs by disk diffusion method; conditions: read-out: IZ
[15] = tested on: Mycolicibacterium smegmatis; test: Antibacterial activity against Mycobacterium smegmatis CCM 2067 at 30 ug after 24 hrs by disk diffusion method; conditions: CCM 2067, 24 h, read-out: IZ
Staphylococcus aureus [16] = test: Antibacterial activity against Staphylococcus aureus ATCC 6538 at 30 ug after 24 hrs by disk diffusion method; conditions: ATCC 6538, 24 h, read-out: IZ
Listeria monocytogenes [17] = test: Antibacterial activity against Listeria monocytogenes ATCC 15313 at 30 ug after 24 hrs by disk diffusion method; conditions: ATCC 15313, 24 h, read-out: IZ
Bacillus cereus [18] = test: Antibacterial activity against Bacillus cereus ATCC 7064 at 30 ug after 24 hrs by disk diffusion method; conditions: ATCC 7064, 24 h, read-out: IZ
Bacillus cereus [19] = test: Antibacterial activity against Bacillus cereus ATCC 7064 at 1 ug after 24 hrs by disk diffusion method; conditions: ATCC 7064, 24 h, read-out: IZ
[20] = tested on: Mycolicibacterium smegmatis; test: Antibacterial activity against Mycobacterium smegmatis CCM 2067 at 1 ug after 24 hrs by disk diffusion method; conditions: CCM 2067, 24 h, read-out: IZ
Staphylococcus aureus [21] = test: Antibacterial activity against Staphylococcus aureus ATCC 6538 at 1 ug after 24 hrs by disk diffusion method; conditions: ATCC 6538, 24 h, read-out: IZ
Pseudomonas aeruginosa [22] = test: Antibacterial activity against Pseudomonas aeruginosa ATCC 27853 at 1 ug after 24 hrs by disk diffusion method; conditions: ATCC 27853, 24 h, read-out: IZ
Escherichia coli [23] = test: Antibacterial activity against Escherichia coli ATCC 11230 at 1 ug after 24 hrs by disk diffusion method; conditions: ATCC 11230, 24 h, read-out: IZ
Proteus vulgaris [24] = test: Antibacterial activity against Proteus vulgaris ATCC 8427 at 1 ug after 24 hrs by disk diffusion method; conditions: ATCC 8427, 24 h, read-out: IZ
Micrococcus luteus [25] = test: Antibacterial activity against Micrococcus luteus La 2971 at 1 ug after 24 hrs by disk diffusion method; conditions: read-out: IZ
Listeria monocytogenes [26] = test: Antibacterial activity against Listeria monocytogenes ATCC 15313 at 1 ug after 24 hrs by disk diffusion method; conditions: ATCC 15313, 24 h, read-out: IZ
Klebsiella pneumoniae [27] = test: Antibacterial activity against Klebsiella pneumoniae UC57 at 1 ug after 24 hrs by disk diffusion method; conditions: read-out: IZ
Micrococcus luteus [28] = test: Antibacterial activity against Micrococcus luteus La 2971 after 24 hrs by twofold serial dilution method
[29] = tested on: Mycolicibacterium smegmatis; test: Antibacterial activity against Mycobacterium smegmatis CCM 2067 after 24 hrs by twofold serial dilution method
Pseudomonas aeruginosa [30] = test: Antibacterial activity against Pseudomonas aeruginosa ATCC 27853 after 24 hrs by twofold serial dilution method
Staphylococcus aureus [31] = test: Antibacterial activity against Staphylococcus aureus ATCC 6538 after 24 hrs by twofold serial dilution method
Proteus vulgaris [32] = test: Antibacterial activity against Proteus vulgaris ATCC 8427 after 24 hrs by twofold serial dilution method
Listeria monocytogenes [33] = test: Antibacterial activity against Listeria monocytogenes ATCC 15313 after 24 hrs by twofold serial dilution method
Klebsiella pneumoniae [34] = test: Antibacterial activity against Klebsiella pneumoniae UC57 after 24 hrs by twofold serial dilution method
Bacillus cereus [35] = test: Antibacterial activity against Bacillus cereus ATCC 7064 after 24 hrs by twofold serial dilution method
Escherichia coli [36] = test: Antibacterial activity against Escherichia coli ATCC 11230 after 24 hrs by twofold serial dilution method
Debaryomyces hansenii [37] = test: Antifungal activity against Debaryomyces hansenii DSM 70238 after 48 hrs by twofold serial dilution method
Rhodotorula mucilaginosa [38] = test: Antifungal activity against Rhodotorula rubra DSM 70403 at 1 ug after 72 hrs by disk diffusion method
Rhodotorula mucilaginosa [39] = test: Antifungal activity against Rhodotorula rubra DSM 70403 after 48 hrs by twofold serial dilution method
Debaryomyces hansenii [40] = test: Antifungal activity against Debaryomyces hansenii DSM 70238 at 1 ug after 72 hrs by disk diffusion method
[41] = tested on: Hanseniaspora guilliermondii; test: Antifungal activity against Hanseniaspora guilliermondii DSM 3432 after 48 hrs by twofold serial dilution method
Kluyveromyces marxianus [42] = test: Antifungal activity against Kluyveromyces fragilis NRRL 2415 at 1 ug after 72 hrs by disk diffusion method
[43] = tested on: Hanseniaspora guilliermondii; test: Antifungal activity against Hanseniaspora guilliermondii DSM 3432 at 1 ug after 72 hrs by disk diffusion method
Kluyveromyces marxianus [44] = test: Antifungal activity against Kluyveromyces fragilis NRRL 2415 after 48 hrs by twofold serial dilution method
Candida albicans = test: Antifungal activity against Candida albicans ATCC 10231 after 48 hrs by twofold serial dilution method

For CC1(C)S[C@@H]2[C@H](NC(=O)Cc3ccccc3)C(=O)N2[C@H]1C(=O)O [PENICILLIN G], the “inhibition zone (IZ)” value (Bacillus cereus [1]) was 10 mm, the “inhibition zone (IZ)” value (Micrococcus luteus [2]) was 8 mm and the “inhibition zone (IZ)” value (Klebsiella pneumoniae [3]) was 18 mm. For the same compound, the “inhibition zone (IZ)” value (Proteus vulgaris [4]) was 36 mm, the “inhibition zone (IZ)” value (Escherichia coli [5]) was 18 mm and the “inhibition zone (IZ)” value [6] was 15 mm. For the same compound, the “inhibition zone (IZ)” value (Listeria monocytogenes [7]) was 10 mm, the “inhibition zone (IZ)” value (Pseudomonas aeruginosa [8]) was 14 mm and the “inhibition zone (IZ)” value (Staphylococcus aureus [9]) was 13 mm.

Compound CN(C)[C@@H]1C(O)=C(C(N)=O)C(=O)[C@@]2(O)C(O)=C3C(=O)c4c(O)cccc4[C@@](C)(O)[C@H]3C[C@@H]12 [TETRACYCLINE] has a zone of inhibition at 30 µg/disc (Proteus vulgaris [10]) of 22 mm, a zone of inhibition at 30 µg/disc (Pseudomonas aeruginosa [11]) of 25 mm and a zone of inhibition at 30 µg/disc (Micrococcus luteus [12]) of 34 mm. It also gave a zone of inhibition at 30 µg/disc (Escherichia coli [13]) of 28 mm, a zone of inhibition at 30 µg/disc (Klebsiella pneumoniae [14]) of 30 mm and a zone of inhibition at 30 µg/disc [15] of 24 mm. It also gave a zone of inhibition at 30 µg/disc (Staphylococcus aureus [16]) of 26 mm, a zone of inhibition at 30 µg/disc (Listeria monocytogenes [17]) of 28 mm and a zone of inhibition at 30 µg/disc (Bacillus cereus [18]) of 26 mm.

With CN[C@H](CC(C)C)C(=O)N[C@H]1C(=O)N[C@@H](CC(N)=O)C(=O)N[C@H]2C(=O)N[C@H]3C(=O)N[C@H](C(=O)N[C@H](C(=O)O)c4cc(O)cc(O)c4-c4cc3ccc4O)[C@H](O)c3ccc(c(Cl)c3)Oc3cc2cc(c3O[C@@H]2O[C@H](CO)[C@@H](O)[C@H](O)[C@H]2O[C@H]2C[C@](C)(N)[C@H](O)[C@H](C)O2)Oc2ccc(cc2Cl)[C@H]1O [VANCOMYCIN] the zone of inhibition at 1 µg/disc (Bacillus cereus [19]) was 20 mm, the zone of inhibition at 1 µg/disc [20] was 20 mm and the zone of inhibition at 1 µg/disc (Staphylococcus aureus [21]) was 13 mm. For the same compound, the zone of inhibition at 1 µg/disc (Pseudomonas aeruginosa [22]) was 18 mm, the zone of inhibition at 1 µg/disc (Escherichia coli [23]) was 22 mm and the zone of inhibition at 1 µg/disc (Proteus vulgaris [24]) was 34 mm. It also gave a zone of inhibition at 1 µg/disc (Micrococcus luteus [25]) of 10 mm, a zone of inhibition at 1 µg/disc (Listeria monocytogenes [26]) of 26 mm and a zone of inhibition at 1 µg/disc (Klebsiella pneumoniae [27]) of 22 mm.

With GENTAMICIN the MIC (Micrococcus luteus [28]) was 6.25 µg/mL, the MIC [29] was 12.5 µg/mL and the MIC (Pseudomonas aeruginosa [30]) was 6.25 µg/mL. The MIC (Staphylococcus aureus [31]) was 25 µg/mL, the MIC (Proteus vulgaris [32]) was 25 µg/mL and the MIC (Listeria monocytogenes [33]) was 12.5 µg/mL. For the same compound, the MIC (Klebsiella pneumoniae [34]) was 6.25 µg/mL, the MIC (Bacillus cereus [35]) was 6.25 µg/mL and the MIC (Escherichia coli [36]) was 6.25 µg/mL.

In the case of NYSTATIN, the MIC (Debaryomyces hansenii [37]) was 12.5 µg/mL, the inhibition zone (IZ) (Rhodotorula mucilaginosa [38]) was 20 mm and the MIC (Rhodotorula mucilaginosa [39]) was 3.12 µg/mL. The inhibition zone (IZ) (Debaryomyces hansenii [40]) was 16 mm, the MIC [41] was 3.12 µg/mL and the inhibition zone (IZ) (Kluyveromyces marxianus [42]) was 18 mm. For the same compound, the inhibition zone (IZ) [43] was 21 mm, the MIC (Kluyveromyces marxianus [44]) was 6.25 µg/mL and the MIC (Candida albicans) was 6.25 µg/mL.
